Structures can show the parent of a compound that is named as a salt.
Legend:
[1] = Long-term accelerated stability test (Test Example 4), sealed in aluminum foil bag (nitrogen-filled); format: physicochemical
[2] = Long-term accelerated stability test (Test Example 3), sealed in aluminum foil bags; format: physicochemical; settings: for physicochemical stability: 25°C/60%RH and 40°C/75%RH for 6 months
[3] = In vivo pharmacokinetic study in beagle dogs; settings: male, dog, plasma, po, gavage, 10 mg/kg
Experimental: With beagle dogs as test animals, the drug concentration in the plasma of beagle dogs at different time points after oral administration of the compound of the present disclosure was determined by using LC/MS/MS. The pharmacokinetic behavior of the compound of the present disclosure in beagle dogs was studied to evaluate its pharmacokinetic characteristics.
Experimental animals: 2 healthy male beagle dogs aged 8 to 36 months per group
Drug preparation: A certain amount of drug was weighed and prepared into a 2 mg/mL colorless clear solution with normal saline.
Administration: Beagle dogs were fasted overnight and administered with the drug by gavage. The dosage of reference 1 and the compound of Example 6 was both 10 mg/kg.
Procedure: Beagle dogs were administered by gavage with the compound of the present disclosure. Approximately 0.6 mL of blood was collected by peripheral venipuncture at 0.25, 0.5, 1, 2, 4, 6, 8, and 24 h after administration. The blood was placed in a tube containing EDTA-K2 and centrifuged at 2000 rpm for 10 min at approximately 4°C to separate the plasma, which was then stored at -75°C.
Determination of the content of the test compound in beagle dog plasma at different blood collection time points: 33 µL of beagle dog plasma (30 µL plasma and 3 µL blank) collected at each time point after administration was added to 18 µL of 6% perchloric acid solution, vortexed for 30 s, and centrifuged at 3900 rpm at 4°C for 15 min. Then, 200 µL of alkaline (pH 10-11 as adjusted with ammonia water) acetonitrile solution containing internal standard dexamethasone was added to precipitate the protein. The mixture was vortexed for 30 s and centrifuged at 3900 rpm at 4°C for 15 min. The supernatant of the plasma sample was taken, diluted 3-fold with water, and 8 µL was taken for LC/MS/MS analysis.
After the blood drug concentration was determined by LC/MS/MS analysis, the pharmacokinetic parameters were calculated using WinNonlin 6.1 software and the non-compartmental model method. Table 1 Pharmacokinetic parameters of the compounds of the present disclosure in beagle dogs

[4] = DVS hygroscopicity test (dynamic moisture sorption); format: physicochemical; settings: at 80% RH
Experimental: DVS stands for dynamic moisture sorption: using the Surface Measurement Systems instrument, humidity started at 50% and the humidity range investigated was 0%-95% with a step of 10%. The judgment standard is that the mass change of each gradient dM/dT is ≤ 0.002%, TMAX is 360 min, and there are two cycles.

O=C(O)[C@@H](Cc1cccc(CN(CCOc2cccc(C[C@H](C(=O)O)[C@H]3CCNC3)c2)Cc2cccc(C[C@H](C(=O)O)[C@H]3CCNC3)c2)c1)[C@H]1CCNC1 [free crystal form C, (2S)-3-(3-{[(2-{3-[(2S)-2-carboxyl-2-[(3R)-pyrrolidin-3-yl]ethyl]phenoxy}ethyl)({3-[(2S)-2-carboxyl-2-[(3R)-pyrrolidin-3-yl]ethyl]phenyl}methyl)amino]methyl}phenyl)-2-[(3R)-pyrrolidin-3-yl]propionic acid]
Crystal form ([1]; 0 day): Crystal form C
Purity (%) ([1]; 0 day): 99.8%
Crystal form ([1]; 25°C-60%RH, 1 month): Unchanged
Purity (%) ([1]; 25°C-60%RH, 1 month): 99.8%
Crystal form ([1]; 25°C-60%RH, 3 months): Unchanged
Purity (%) ([1]; 25°C-60%RH, 3 months): 99.7%
Crystal form ([1]; 25°C-60%RH, 6 months): Unchanged
Purity (%) ([1]; 25°C-60%RH, 6 months): 99.7%
Crystal form ([1]; 25°C-60%RH, 7 days): Unchanged
Purity (%) ([1]; 25°C-60%RH, 7 days): 99.8%
Crystal form ([1]; 25°C-60%RH, 14 days): Unchanged
Purity (%) ([1]; 25°C-60%RH, 14 days): 99.8%
physicochemical stability ([1]; 25°C/60%RH and 40°C/75%RH for 6 months): good
Crystal form ([1]; 40°C-75%RH, 1 month): Unchanged
Purity (%) ([1]; 40°C-75%RH, 1 month): 99.8%
Crystal form ([1]; 40°C-75%RH, 3 months): Unchanged
Purity (%) ([1]; 40°C-75%RH, 3 months): 99.3%
Crystal form ([1]; 40°C-75%RH, 6 months): Unchanged
Purity (%) ([1]; 40°C-75%RH, 6 months): 99.3%
Crystal form ([1]; 40°C-75%RH, 7 days): Unchanged
Purity (%) ([1]; 40°C-75%RH, 7 days): 99.8%
Crystal form ([1]; 40°C-75%RH, 14 days): Unchanged
Purity (%) ([1]; 40°C-75%RH, 14 days): 99.8%

O=C(O)[C@@H](Cc1cccc(CN(CCOc2cccc(C[C@H](C(=O)O)[C@H]3CCNC3)c2)Cc2cccc(C[C@H](C(=O)O)[C@H]3CCNC3)c2)c1)[C@H]1CCNC1 [hydrochloride (1:1) amorphous form, (2S)-3-(3-{[(2-{3-[(2S)-2-carboxyl-2-[(3R)-pyrrolidin-3-yl]ethyl]phenoxy}ethyl)({3-[(2S)-2-carboxyl-2-[(3R)-pyrrolidin-3-yl]ethyl]phenyl}methyl)amino]methyl}phenyl)-2-[(3R)-pyrrolidin-3-yl]propionic acid]
Crystal form ([2]; 0 day): Amorphous form
Purity (%) ([2]; 0 day): 98.8%
Crystal form ([2]; 25°C-60%RH, 1 month): Crystal form a
Purity (%) ([2]; 25°C-60%RH, 1 month): 98.7%
Crystal form ([2]; 25°C-60%RH, 2 months): Crystal form a
Purity (%) ([2]; 25°C-60%RH, 2 months): 98.6%
Crystal form ([2]; 25°C-60%RH, 3 months): Crystal form a
Purity (%) ([2]; 25°C-60%RH, 3 months): 98.2%
Crystal form ([2]; 25°C-60%RH, 7 days): Unchanged
Purity (%) ([2]; 25°C-60%RH, 7 days): 98.8%
Crystal form ([2]; 25°C-60%RH, 14 days): Unchanged
Purity (%) ([2]; 25°C-60%RH, 14 days): 98.8%
physicochemical stability [2]: slightly less stable
Crystal form ([2]; 40°C-75%RH, 1 month): Crystal form a
Purity (%) ([2]; 40°C-75%RH, 1 month): 97.6%
Crystal form ([2]; 40°C-75%RH, 2 months): Crystal form a
Purity (%) ([2]; 40°C-75%RH, 2 months): 95.6%
Crystal form ([2]; 40°C-75%RH, 3 months): Crystal form a
Purity (%) ([2]; 40°C-75%RH, 3 months): 95.3%
Crystal form ([2]; 40°C-75%RH, 7 days): Crystal form a
Purity (%) ([2]; 40°C-75%RH, 7 days): 98.3%
Crystal form ([2]; 40°C-75%RH, 14 days): Crystal form a
Purity (%) ([2]; 40°C-75%RH, 14 days): 98.1%

Cl.Cl.Cl.Cl.O=C(O)[C@@H](Cc1cccc(CN(CCOc2cccc(C[C@H](C(=O)O)[C@H]3CCNC3)c2)Cc2cccc(C[C@H](C(=O)O)[C@H]3CCNC3)c2)c1)[C@H]1CCNC1 [Compound A hydrochloride, (2S)-3-(3-{[(2-{3-[(2S)-2-carboxyl-2-[(3R)-pyrrolidin-3-yl]ethyl]phenoxy}ethyl)({3-[(2S)-2-carboxyl-2-[(3R)-pyrrolidin-3-yl]ethyl]phenyl}methyl)amino]methyl}phenyl)-2-[(3R)-pyrrolidin-3-yl]propionic acid tetrahydrochloride]
AUC ([3]; read-out: Area under curve AUC): 28600 ng·h/mL
half-life ([3]; read-out: Half life T1/2 (converted)): 18.3 h
Cmax ([3]; read-out: Maximum blood concentration Cmax): 2470 ng/mL

O=C(O)[C@@H](Cc1cccc(CN(CCOc2cccc(C[C@H](C(=O)O)[C@H]3CCNC3)c2)Cc2cccc(C[C@H](C(=O)O)[C@H]3CCNC3)c2)c1)[C@H]1CCNC1 [hydrochloride (1:1) crystal form a, (2S)-3-(3-{[(2-{3-[(2S)-2-carboxyl-2-[(3R)-pyrrolidin-3-yl]ethyl]phenoxy}ethyl)({3-[(2S)-2-carboxyl-2-[(3R)-pyrrolidin-3-yl]ethyl]phenyl}methyl)amino]methyl}phenyl)-2-[(3R)-pyrrolidin-3-yl]propionic acid]
DVS hygroscopicity weight gain ([4]; listed as hydrochloride crystal form a): 30%
Crystal form ([2]; 0 day): Hydrochloride crystal form a
Purity (%) ([2]; 0 day): 99.9%
Crystal form ([2]; 25°C-60%RH, 1 month): Unchanged
Purity (%) ([2]; 25°C-60%RH, 1 month): 99.9%
Crystal form ([2]; 25°C-60%RH, 3 months): Deliquescent
Purity (%) ([2]; 25°C-60%RH, 3 months): 99.7%
Crystal form ([2]; 25°C-60%RH, 6 months): Deliquescent
Purity (%) ([2]; 25°C-60%RH, 6 months): 98.5%
Crystal form ([2]; 25°C-60%RH, 7 days): Unchanged
Purity (%) ([2]; 25°C-60%RH, 7 days): 99.9%
Crystal form ([2]; 25°C-60%RH, 14 days): Unchanged
Purity (%) ([2]; 25°C-60%RH, 14 days): 99.9%
physicochemical stability [2]: slightly less stable
Crystal form ([2]; 40°C-75%RH, 1 month): Deliquescent
Purity (%) ([2]; 40°C-75%RH, 1 month): 97.7%
Crystal form ([2]; 40°C-75%RH, 3 months): Deliquescent
Purity (%) ([2]; 40°C-75%RH, 3 months): 95.2%
Crystal form ([2]; 40°C-75%RH, 6 months): Deliquescent
Purity (%) ([2]; 40°C-75%RH, 6 months): 94.8%
Crystal form ([2]; 40°C-75%RH, 7 days): Unchanged
Purity (%) ([2]; 40°C-75%RH, 7 days): 99.8%
Crystal form ([2]; 40°C-75%RH, 14 days): Unchanged
Purity (%) ([2]; 40°C-75%RH, 14 days): 98.8%

Cl.Cl.Cl.Cl.O=C(O)[C@@H](Cc1cccc(CN(CCOc2cccc(C[C@H](C(=O)O)[C@H]3CCNC3)c2)Cc2cccc(C[C@H](C(=O)O)[C@H]3CCNC3)c2)c1)[C@H]1CCNC1 [hydrochloride (1:4) amorphous form, (2S)-3-(3-{[(2-{3-[(2S)-2-carboxyl-2-[(3R)-pyrrolidin-3-yl]ethyl]phenoxy}ethyl)({3-[(2S)-2-carboxyl-2-[(3R)-pyrrolidin-3-yl]ethyl]phenyl}methyl)amino]methyl}phenyl)-2-[(3R)-pyrrolidin-3-yl]propionic acid tetrahydrochloride]
Crystal form ([2]; 0 day): Amorphous form
Purity (%) ([2]; 0 day): 99.8%
Crystal form ([2]; 25°C-60%RH, 1 month): Unchanged
Purity (%) ([2]; 25°C-60%RH, 1 month): 99.8%
Crystal form ([2]; 25°C-60%RH, 2 months): Deliquescent
Purity (%) ([2]; 25°C-60%RH, 2 months): 99.8%
Crystal form ([2]; 25°C-60%RH, 3 months): Deliquescent
Purity (%) ([2]; 25°C-60%RH, 3 months): 99.8%
Crystal form ([2]; 25°C-60%RH, 6 months): Deliquescent
Purity (%) ([2]; 25°C-60%RH, 6 months): 99.8%
Crystal form ([2]; 25°C-60%RH, 7 days): Unchanged
Purity (%) ([2]; 25°C-60%RH, 7 days): 99.8%
Crystal form ([2]; 25°C-60%RH, 14 days): Unchanged
Purity (%) ([2]; 25°C-60%RH, 14 days): 99.8%
physicochemical stability [2]: slightly less stable
Crystal form ([2]; 40°C-75%RH, 1 month): Deliquescent
Purity (%) ([2]; 40°C-75%RH, 1 month): 99.8%
Crystal form ([2]; 40°C-75%RH, 2 months): Deliquescent
Purity (%) ([2]; 40°C-75%RH, 2 months): 99.8%
Crystal form ([2]; 40°C-75%RH, 3 months): Deliquescent
Purity (%) ([2]; 40°C-75%RH, 3 months): 99.8%
Crystal form ([2]; 40°C-75%RH, 6 months): Deliquescent
Purity (%) ([2]; 40°C-75%RH, 6 months): 99.8%
Crystal form ([2]; 40°C-75%RH, 7 days): Unchanged
Purity (%) ([2]; 40°C-75%RH, 7 days): 99.8%
Crystal form ([2]; 40°C-75%RH, 14 days): Unchanged
Purity (%) ([2]; 40°C-75%RH, 14 days): 99.8%

O=C(O)[C@@H](Cc1cccc(CN(CCOc2cccc(C[C@H](C(=O)O)[C@H]3CCNC3)c2)Cc2cccc(C[C@H](C(=O)O)[C@H]3CCNC3)c2)c1)[C@H]1CCNC1 [hydrochloride (1:1) crystal form e, (2S)-3-(3-{[(2-{3-[(2S)-2-carboxyl-2-[(3R)-pyrrolidin-3-yl]ethyl]phenoxy}ethyl)({3-[(2S)-2-carboxyl-2-[(3R)-pyrrolidin-3-yl]ethyl]phenyl}methyl)amino]methyl}phenyl)-2-[(3R)-pyrrolidin-3-yl]propionic acid]
DVS hygroscopicity weight gain ([4]; listed as hydrochloride crystal form e): 18%
Crystal form ([2]; 0 day): Hydrochloride crystal form e
Purity (%) ([2]; 0 day): 99.9%
Crystal form ([2]; 25°C-60%RH, 1 month): Unchanged
Purity (%) ([2]; 25°C-60%RH, 1 month): 99.9%
Crystal form ([2]; 25°C-60%RH, 3 months): Unchanged
Purity (%) ([2]; 25°C-60%RH, 3 months): 99.9%
Crystal form ([2]; 25°C-60%RH, 6 months): Unchanged
Purity (%) ([2]; 25°C-60%RH, 6 months): 99.9%
Crystal form ([2]; 25°C-60%RH, 7 days): Unchanged
Purity (%) ([2]; 25°C-60%RH, 7 days): 99.9%
Crystal form ([2]; 25°C-60%RH, 14 days): Unchanged
Purity (%) ([2]; 25°C-60%RH, 14 days): 99.9%
physicochemical stability [2]: good
Crystal form ([2]; 40°C-75%RH, 1 month): Unchanged
Purity (%) ([2]; 40°C-75%RH, 1 month): 99.9%
Crystal form ([2]; 40°C-75%RH, 3 months): Unchanged
Purity (%) ([2]; 40°C-75%RH, 3 months): 99.9%
Crystal form ([2]; 40°C-75%RH, 6 months): Unchanged
Purity (%) ([2]; 40°C-75%RH, 6 months): 99.9%
Crystal form ([2]; 40°C-75%RH, 7 days): Unchanged
Purity (%) ([2]; 40°C-75%RH, 7 days): 99.9%
Crystal form ([2]; 40°C-75%RH, 14 days): Unchanged
Purity (%) ([2]; 40°C-75%RH, 14 days): 99.9%

From patent EP4711355A1, “CRYSTAL FORM OF LIPOPROTEIN COMPOUND AND PREPARATION METHOD THEREFOR” (Jiangsu Hengrui Pharmaceuticals Co., Ltd., priority 2023, dated 2024)
